From the supplement of paper PMC11451515

System: SEM cells
Experiment: cell viability relative to DMSO control; higher = less cytotoxic
Conditions: 48 h
How it was run: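 Viability, reported as a per-plate percentage of DMSO wells with cell-free wells as background, came from CellTiter-Glo One luminescence. Reading took place after 48 h at 37°C. Before that, NOMO1 or SEM (500 cells/well) or P12-Ichikawa (1000 cells/well) leukemia cells, adapted for at least four passages in each medium, were seeded in 1536-well plates (5 μl) and pin-dosed with library compounds in DMSO, 47 μM to 0.79 nM over 11 threefold points.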

[1] = HPLM + 10% dialyzed FBS, 0.000781 µM
[2] = HPLM + 10% dialyzed FBS, 0.00234 µM
[3] = HPLM + 10% dialyzed FBS, 0.00702 µM
[4] = HPLM + 10% dialyzed FBS, 0.0211 µM
[5] = HPLM + 10% dialyzed FBS, 0.0632 µM
[6] = HPLM + 10% dialyzed FBS, 0.19 µM
[7] = HPLM + 10% dialyzed FBS, 0.569 µM
[8] = HPLM + 10% dialyzed FBS, 1.71 µM
[9] = HPLM + 10% dialyzed FBS, 5.12 µM
[10] = HPLM + 10% dialyzed FBS, 15.4 µM
[11] = HPLM + 10% dialyzed FBS, 46.1 µM
[12] = RPMI 5 mM glucose + 10% FBS, 0.000781 µM
[13] = RPMI 5 mM glucose + 10% FBS, 0.00234 µM
[14] = RPMI 5 mM glucose + 10% FBS, 0.00702 µM
[15] = RPMI 5 mM glucose + 10% FBS, 0.0211 µM
[16] = RPMI 5 mM glucose + 10% FBS, 0.0632 µM
[17] = RPMI 5 mM glucose + 10% FBS, 0.19 µM
[18] = RPMI 5 mM glucose + 10% FBS, 0.569 µM
[19] = RPMI 5 mM glucose + 10% FBS, 1.71 µM
[20] = RPMI 5 mM glucose + 10% FBS, 5.12 µM
[21] = RPMI 5 mM glucose + 10% FBS, 15.4 µM
[22] = RPMI 5 mM glucose + 10% FBS, 46.1 µM
[23] = RPMI 5 mM glucose + 10% dialyzed FBS, 0.000781 µM
[24] = RPMI 5 mM glucose + 10% dialyzed FBS, 0.00234 µM
[25] = RPMI 5 mM glucose + 10% dialyzed FBS, 0.00702 µM
[26] = RPMI 5 mM glucose + 10% dialyzed FBS, 0.0211 µM
[27] = RPMI 5 mM glucose + 10% dialyzed FBS, 0.0632 µM
[28] = RPMI 5 mM glucose + 10% dialyzed FBS, 0.19 µM
[29] = RPMI 5 mM glucose + 10% dialyzed FBS, 0.569 µM
[30] = RPMI 5 mM glucose + 10% dialyzed FBS, 1.71 µM
[31] = RPMI 5 mM glucose + 10% dialyzed FBS, 5.12 µM
[32] = RPMI 5 mM glucose + 10% dialyzed FBS, 15.4 µM
[33] = RPMI 5 mM glucose + 10% dialyzed FBS, 46.1 µM

SMILES | cell viability [1] [%] | cell viability [2] [%] | cell viability [3] [%] | cell viability [4] [%] | cell viability [5] [%] | cell viability [6] [%] | cell viability [7] [%] | cell viability [8] [%] | cell viability [9] [%] | cell viability [10] [%] | cell viability [11] [%] | cell viability [12] [%] | cell viability [13] [%] | cell viability [14] [%] | cell viability [15] [%] | cell viability [16] [%] | cell viability [17] [%] | cell viability [18] [%] | cell viability [19] [%] | cell viability [20] [%] | cell viability [21] [%] | cell viability [22] [%] | cell viability [23] [%] | cell viability [24] [%] | cell viability [25] [%] | cell viability [26] [%] | cell viability [27] [%] | cell viability [28] [%] | cell viability [29] [%] | cell viability [30] [%] | cell viability [31] [%] | cell viability [32] [%] | cell viability [33] [%]
Cc1cnc(Nc2cccc(CN3CCOCC3)c2)nc1Nc1cccc([S+](=O)([O-])NC(C)(C)C)c1 | 77.4 | 80.3 | 97.3 | 91.7 | 74.4 | 72.1 | 84.7 | 36.4 | 15.7 | 69.1 | 53.6 | 79.7 | 88.8 | 94.5 | 110 | 82.1 | 87.9 | 79 | 58 | 9.88 | 74 | 21.9 | 79.6 | 93.5 | 93.5 | 84.9 | 72.5 | 64 | 81.8 | 17.9 | 9.6 | 66.4 | 39.3
C#CCC(Cc1cnc2nc(N)nc(N)c2n1)c1ccc(C(=O)N[C@@H](CCC(=O)O)C(=O)O)cc1 (stereo not given in full) | 110 | 113 | 114 | 119 | 47 | 48 | 39.2 | 36.3 | 31.9 | 38.1 | 35.1 | 113 | 122 | 120 | 118 | 90.6 | 73.3 | 74.1 | 71.9 | 66.7 | 68.1 | 68 | 105 | 114 | 110 | 107 | 27.4 | 23.5 | 24.3 | 23 | 20.3 | 22.9 | 22.3
COc1cccc(N(C)C(=S)Oc2ccc3c(c2)CCCC3)n1 | 75.6 | 66.4 | 85.4 | 88.1 | 91.2 | 84 | 95.4 | 82.5 | 76.5 | 82.8 | 65.6 | 75 | 83 | 86.7 | 94 | 104 | 96.2 | 93.1 | 97 | 99.3 | 97.9 | 92.8 | 96.7 | 95.1 | 90.2 | 93.3 | 91.3 | 100 | 101 | 97.5 | 87.8 | 98.5 | 84.6
CO[C@H]1C[C@@H]2CC[C@@H](C)[C@@](O)(O2)C(=O)C(=O)N2CCCC[C@H]2C(=O)O[C@H]([C@@H](C)C[C@@H]2CC[C@@H](O)[C@H](OC)C2)CC(=O)[C@H](C)/C=C(\C)[C@@H](O)[C@@H](OC)C(=O)[C@H](C)C[C@H](C)/C=C/C=C/C=C/1C | 95.4 | 95.3 | 88 | 83.2 | 86.9 | 81.7 | 81.9 | 74.2 | 80.1 | 79.5 | 61.3 | 98.6 | 84.3 | 89.4 | 94.9 | 80.6 | 77.3 | 75.7 | 80.7 | 68 | 70.6 | 60.6 | 96.9 | 87.2 | 102 | 85.7 | 89.8 | 81.3 | 85.5 | 84.4 | 81.6 | 81.7 | 52.6
c1ccc2c(CN3CCNCC3)cccc2c1 | 102 | 102 | 115 | 108 | 100 | 126 | 108 | 107 | 102 | 98.8 | 98.8 | 85.5 | 104 | 98.6 | 107 | 97.4 | 101 | 97.1 | 103 | 92.7 | 101 | 105 | 97.7 | 106 | 126 | 124 | 128 | 122 | 106 | 131 | 95.7 | 103 | 84
COc1cc(N2CCC(N3CCN(C)CC3)CC2)ccc1Nc1ncc(Cl)c(Nc2ccccc2[S+](=O)([O-])C(C)C)n1 | 50.9 | 55.6 | 75.8 | 89.1 | 127 | 84.1 | 89.4 | 19.3 | 22 | 17.5 | 13.6 | 48.1 | 57.5 | 93.2 | 105 | 117 | 84.1 | 72.7 | 16.1 | 12.9 | 8.26 | 4.14 | 58.8 | 63.1 | 86.6 | 117 | 119 | 86.2 | 90.1 | 17.8 | 14.9 | 15 | 11.9
NC[C@H](O)c1ccc(O)c(O)c1 | 93.3 | 102 | 111 | 101 | 95.9 | 98.2 | 92 | 85.4 | 92.8 | 84.5 | 78.4 | 84 | 115 | 102 | 109 | 97.7 | 100 | 97 | 89.5 | 97.5 | 82.8 | 81.5 | 84.9 | 103 | 88.5 | 103 | 104 | 99.1 | 100 | 91.9 | 96.7 | 96.9 | 72.9
COc1cc2c(cc1OC)CN(CCc1ccc(NC(=O)c3cccc4c(=O)c5cccc(OC)c5[nH]c34)cc1)CC2 | 84.4 | 98.8 | 103 | 105 | 106 | 109 | 105 | 105 | 36.4 | 8.23 | 5.66 | 91.1 | 85.9 | 82.9 | 90.8 | 77.2 | 83.5 | 85.2 | 9.76 | 8.45 | 5.57 | 4.07 | 108 | 112 | 104 | 112 | 122 | 116 | 94.3 | 24.4 | 11.2 | 5.96 | 3.77
Clc1ccc(CCC(Cn2ccnc2)Sc2c(Cl)cccc2Cl)cc1 (stereo not given) | 73 | 71.5 | 77.3 | 83.5 | 72.8 | 95 | 76.3 | 77.3 | 80.1 | 76.8 | 61.2 | 78.7 | 88 | 97.7 | 89.7 | 85.7 | 83.6 | 101 | 100 | 92.6 | 86.1 | 52.5 | 78.8 | 88.7 | 100 | 92.5 | 82 | 103 | 89.4 | 77.4 | 76.9 | 85.3 | 57.3
CC(C)[C@]12O[C@H]1[C@@H]3O[C@@]34[C@@]5(C)CC\C6=C(COC6=O)/[C@@H]5C[C@@H]7O[C@]47[C@@H]2O | 88.8 | 8.24 | 7.05 | 7.2 | 8.43 | 7.98 | 7.67 | 7.16 | 5.34 | 3.24 | 2.08 | 70.6 | 5.86 | 5.11 | 4.85 | 5.84 | 5.43 | 4.78 | 4.12 | 3.56 | 2.23 | 1.15 | 107 | 6.37 | 6.75 | 6.32 | 7.36 | 7.3 | 6.55 | 6.33 | 4.78 | 3.05 | 2.21
O=C1\C=C(OC2=C(C=CC=C12)C3=CC=CC4=C3SC5=C4C=CC=C5)\N6CCOCC6 | 110 | 103 | 121 | 120 | 124 | 115 | 107 | 104 | 96.9 | 89.9 | 91.2 | 133 | 104 | 105 | 138 | 109 | 112 | 112 | 114 | 73 | 60.2 | 62.7 | 129 | 109 | 116 | 123 | 116 | 123 | 122 | 113 | 78.5 | 75.7 | 76
CCCC[S+](=N)([O-])CCC(N)C(=O)O (stereo not given) | 87.1 | 78.5 | 102 | 107 | 124 | 108 | 132 | 102 | 109 | 97.5 | 41.6 | 114 | 109 | 136 | 131 | 113 | 136 | 128 | 104 | 125 | 103 | 84.6 | 120 | 108 | 131 | 122 | 137 | 140 | 128 | 146 | 157 | 111 | 120
O=C(Nc1cccnc1)N1CCC(Cc2cccc(Oc3ccc(C(F)(F)F)cn3)c2)CC1 | 42 | 94.2 | 83.5 | 95.1 | 117 | 88.7 | 94.3 | 69.6 | 49.3 | 11.2 | 9 | 46.8 | 92.7 | 81.5 | 89.8 | 100 | 88.4 | 64.9 | 57.1 | 35.8 | 6.35 | 4.68 | 37.7 | 91.2 | 81.1 | 78.1 | 98.4 | 91.1 | 86.9 | 58.1 | 34.7 | 14.4 | 8.02
NCCOc1cc(C(=O)Nc2cc(OCCN)c3ccccc3n2)nc(C(=O)Nc2cc(OCCN)c3ccccc3n2)c1 | 47.6 | 56.1 | 36.1 | 23.8 | 19.4 | 22.9 | 22.8 | 21.5 | 22.2 | 31.1 | 46.3 | 23.9 | 19.8 | 23.7 | 21.1 | 22.1 | 23.6 | 23.2 | 19.3 | 27.5 | 32.6 | 61.1 | 67.3 | 58.4 | 42.6 | 25.6 | 22.9 | 20 | 22.9 | 25.4 | 21.7 | 38.2 | 59.5
CC(C)(Sc1cc(C(C)(C)C)c(O)c(C(C)(C)C)c1)Sc1cc(C(C)(C)C)c(O)c(C(C)(C)C)c1 | 73.2 | 89.8 | 60 | 90.9 | 91.2 | 91.9 | 84.2 | 81.4 | 46.4 | 89.1 | 90 | 90 | 94.6 | 67 | 96.1 | 80.7 | 103 | 91.3 | 84.1 | 49.1 | 95.4 | 105 | 79 | 81.5 | 76.7 | 97.7 | 86.1 | 94.5 | 90.2 | 89.3 | 54.4 | 89.1 | 104
